Results reported in PubChem BioAssay (NCI).
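How tested: cells in 96-well plates exposed to compound for 48 hours at five concentrations. TGI denotes the concentration required for complete inhibition of growth.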 Where a SMILES comes first, the peptide text is derived from it. The star is where a group is joined. Cbz = O=C(OCc1ccccc1)*; NHNH2 = NN*

Legend:
Test in all cases: growth of human tumour cells (NCI), 48 h
[1] = test system: HOP-62 NSCLC
[2] = test system: LOX IMVI melanoma
[3] = test system: OVCAR-3 ovarian
[4] = test system: HS 578T breast
[5] = test system: NCI/ADR-RES ovarian

| Compound | TGI [1] [µM] | TGI [2] [µM] | TGI [3] [µM] | TGI [4] [µM] | TGI [5] [µM] |
| --- | --- | --- | --- | --- | --- |
| CC(=O)C(=[N+]=[N-])C(=O)N(C)CCC#N | > 10 | > 10 | > 10 |  |  |
| Cc1ccc(NC(=O)/C(=N/N(C)C)C(C2OC(=O)c3ccccc32)[N+](=O)[O-])cc1 (configuration not stated) | > 100 | > 100 | > 100 | > 100 | > 100 |
| CN(C(=O)Cc1cc(Cl)c(Cl)cc1NC(=O)CN)[C@H]1CCCC[C@@H]1N1CCCC1 | > 100 | 41.6 | > 100 | 64 | > 100 |
| CCOC(=O)C(C)c1nc2ccc(C(F)(F)F)cc2[nH]c1=O (configuration not stated) | > 100 | > 100 | > 100 | > 100 | > 100 |
| CCC(O)c1ccc(N=Cc2ccccc2O)cc1 (configuration not stated) | > 100 | > 100 | > 100 |  | > 100 |
| CC/C=C/C[C@H](O)[C@H]1C[C@H]2O[C@H](CC(=O)OC)C[C@H]2O1 | > 100 | > 100 | > 100 | > 100 | > 100 |
| CCOC(=O)CCC(NC(=O)OCc1ccccc1)C(=O)NC(CCC(=O)OCC)C(=O)NN (configuration not stated) (Cbz-Glu(OEt)-Glu(OEt)-NHNH2; configuration not given here) | > 100 |  |  | > 100 |  |
| C(=Nc1ccc(-c2nc3ccccc3[nH]2)cc1)c1ccco1 | > 100 | > 100 | > 100 | > 100 | > 100 |
| COc1c2c(cc3c1C1(O)Cc4ccc5c(c4C[N+]1(C)CC3)OCO5)OCO2 (configuration not stated) | > 100 | > 100 | > 100 | > 100 | > 100 |
| O=C(Nc1nnc(-c2c(Cl)c(Cl)c(Cl)c(Cl)c2-c2nc3cc(C(=O)c4ccccc4)ccc3[nH]2)o1)c1ccc(Cl)cc1 | 67.5 | > 100 | 54.1 |  | > 100 |
| CSCCCNC(=O)c1csc(-c2csc(CCNC(=O)CNC(=O)CNC(=O)OC(C)(C)C)n2)n1 | > 100 | > 100 | > 100 | > 100 | > 100 |
| CN(C)c1cccc2c1C(=O)C=CC21CCc2ccc(N(C)C)c3c(N(C)C)ccc1c23 (configuration not stated) | 32.8 | 31.9 | 24.8 | 66.8 | > 100 |
| COC(=O)/C=C\C(C#N)(C#N)N=Cc1sccc1C | 27.8 | 3.31 | 16 | 37.1 | 32.7 |
| CCN(CC)CCCNc1[nH]ncc2c(C)c3nc4ccc(OC)cc4c3cc12 | 4.16 | 0.829 | 2.99 | 4.25 | > 100 |
| CC1C2=C(CCCC2=O)N(c2ccc(Cl)cc2)C2=C1C(=O)CCC2 |  | > 100 | > 100 | > 100 | > 100 |
| CCOC(=O)CN1CC(C2=C(O)CN(CC(=O)OCC)C2=O)=CC1=O | > 100 | > 100 | > 100 | > 100 | > 100 |
| C=CCN(c1cc(OC)c2[nH]c(C(=O)OCC)c(C)c2c1[N+](=O)[O-])S(C)(=O)=O | > 100 | 39.4 | 80.2 | 58.7 | 72.6 |
| COc1ccc2c3c1OC1C34CCN(C)C(C2)C4=CC(I)C1(OC)OC (configuration not stated) | 20.8 | 23.9 | 18.5 | 79.7 | > 100 |
| O=S(=O)(O)c1ccc2c(N=Nc3ccc(Cl)cc3)c(O)ccc2c1 | > 100 | > 100 | > 100 | > 100 | > 100 |
| O=C(O)c1ccc(Nc2nc3cc(C(F)(F)F)ccc3n3cccc23)cc1 | > 100 | 30.5 | > 100 | > 100 | > 100 |
| Cc1ccc(S(=O)(=O)N/N=C2/CC3CCC4CC2CC34)cc1 (configuration not stated) | > 100 | > 100 | > 100 | > 100 | > 100 |
| O=C(Nc1sccc1S(=O)(=O)c1ccccc1)c1ccccc1 | > 100 | > 100 | > 100 | > 100 | > 100 |

| Compound | TGI [1] [µM] | TGI [2] [µM] | TGI [3] [µM] | TGI [4] [µM] | TGI [5] [µM] |
| --- | --- | --- | --- | --- | --- |
| CC1(C)OC[C@@H](O)[C@H](Br)CO1 | > 100 | > 100 | > 100 | > 100 |  |
| CC1(C)CC(=O)c2c(nc3c(ccc4ccccc43)c2-c2ccc(NC(=O)CCCCC(=O)Nc3ccc(-c4c5c(nc6c4ccc4ccccc46)CC(C)(C)CC5=O)cc3)cc2)C1 | > 100 | 33.3 | 80.8 | > 100 | 77.6 |
| Cc1ccc2oc3c(c(Br)c(Br)n3C)c(=O)c2c1 | 33.3 | > 100 | 46.8 | 65 | 52.5 |
| COc1nc2c(c(=O)n1C)N=C(c1ccc(Cl)cc1)CC(c1ccccc1)N2 (configuration not stated) | > 100 | 52.2 | > 100 |  | > 100 |
| CCCN1C(=O)/C(=C\c2ccc(OC)c(OC)c2)SC1=Nc1ccccc1 | 98.5 | > 100 | > 100 | > 100 | > 100 |
| NC1Cc2ccccc2OC1=O (configuration not stated) | > 100 |  | > 100 | > 100 | > 100 |
| c1ccc2c(c1)ccn1ccc3c4ccccc4nc-3c21 | 1.85 | 1.48 | 2.92 | 4.25 | 2.17 |
| CNC(=O)OC(COC)CN1CCN(c2ccccc2C)CC1 (configuration not stated) | > 10 | > 10 | > 10 | > 10 | > 10 |
| CCOC(=O)C(O)(C(=O)OCC)c1cc(C(C)(C)C)c(O)c(C(C)(C)C)c1 | > 100 | > 100 | > 100 | > 100 | > 100 |
| COc1cc2ccc1OCc1cccc(n1)COc1ccc(cc1OC)C=NCCNCCNCCN=C2 | > 100 | > 100 | > 100 | > 100 | > 100 |
| COC(=O)[C@@H]1CC(C(CN)c2cn(C(=O)OC(C)(C)C)c3ccccc23)C(=O)N1C(=O)OC(C)(C)C (some centres not stated) | > 100 | 30.5 | 59.8 | > 100 | 55.8 |
| N#CCN(CC#N)C1CC=CCC1N(CC#N)CC#N (configuration not stated) | > 100 | > 100 | > 100 | > 100 | > 100 |
| NC(=O)c1c(NC=O)ncn1C1OCC(O)C(O)C1O (configuration not stated) | > 100 | > 100 | > 100 | > 100 | > 100 |
| C[N+]1(CCC[N+]2(C)CC3C4C=CC(CC4)C3C2)CCOCC1 (configuration not stated) | > 100 | > 100 | > 100 | > 100 | > 100 |
| CC(C)(C)OC(=O)Cn1ncn(NC(=O)Cc2ccccc2)c1=O | > 10 | > 10 | > 10 | > 10 | > 10 |
| Cc1ccc(O)c(C2=CC(c3cccc(Br)c3)SC(N)=N2)c1 (configuration not stated) | 52 | 34.7 | > 100 | 45 | 71.9 |
| CC(C)(C)C1=CC(=C2C=Cc3ccccc3O2)C=C(C(C)(C)C)C1=O | 20.9 | 12.9 | 7.71 | > 47.6 | 14.8 |
| CCN(CC)c1ccc2cc(C(=O)Nc3ccc(C)cc3)c(=N)oc2c1 | > 100 | > 100 | > 100 | > 100 | > 100 |
| CCn1c(=O)c2nc(SC)sc2n(-c2ccccc2)c1=O | > 100 | > 100 | > 100 |  | > 100 |
| C=CCc1cc(C(Cc2ccccc2)NC(C)C)cc(OCc2ccccc2)c1OCc1ccccc1 (configuration not stated) | 30.3 | 31.7 | 30.4 | 37.1 | 30.7 |
| CC(C)/C(=N\[N+](C)(C)C)c1ccccc1 | > 100 | > 100 | > 100 | > 100 | > 100 |
| Nc1ccc(-c2nc3ccccc3s2)cc1C#Cc1ccccc1 | 28.2 | 36 | 33.1 | 50.2 | 48.6 |

| Compound | TGI [1] [µM] | TGI [2] [µM] | TGI [3] [µM] | TGI [4] [µM] | TGI [5] [µM] |
| --- | --- | --- | --- | --- | --- |
| CC1CN=C(c2cccc(-c3nc(-c4cccc(C5=NCC(C)N5)c4)nc(N(C)C)n3)c2)N1 (configuration not stated) | 5.9 | 2.6 | 4.19 | 17.1 | 35.9 |
| COC1CCC(=O)N1CN(C(C)=O)c1ccc(C)cc1 (configuration not stated) | > 100 | > 100 | > 100 | > 100 | > 100 |
| CCCC1(CCC)c2cc(/C=N\O)ccc2-c2ccc(-c3ccc(C(C)(C)C)cc3)cc21 | > 100 | > 100 | 55 | > 100 | > 100 |
| COc1ccccc1NCc1cccc2c(=O)c3ccc(Cl)cc3oc12 | > 100 | > 100 | > 100 |  | > 100 |
| COc1ccc2nc3n(c2c1)C(=O)c1ccccc1-3 | > 100 |  | > 100 |  | > 100 |
| Cc1c(N2C(=O)/C(=C/c3ccc(N(CCC#N)CCC#N)cc3)N=C2c2ccccc2)c(=O)n(-c2ccccc2)n1C | > 100 | > 100 | > 100 | > 100 | > 100 |
| CSc1c(CC(=O)Nc2ccc(Cl)cc2)n(Cc2ccccc2)c2ccccc12 | > 100 | > 100 | > 100 | 69.4 | > 100 |
| CC[C@H](C)C1=C(O)[N@+]2([O-])Oc3ccc(-c4c(O)c(O)c(-c5ccc(O)cc5)c(OC(C)=O)c4OC(C)=O)cc3O[C@]2([C@@H](C)CC)C(=O)N1O | > 50 | > 50 | > 50 | > 50 | > 50 |
| COc1ccc(-n2c(=O)n(-c3ccccc3)c(=O)n2-c2ccc(OC)cc2)cc1 | > 100 | > 100 | > 100 |  | > 100 |
| CCOC(=O)c1cc(C2CCN(c3ccccc3)C2=O)c(C(=O)/C=C(/C)N)[nH]1 (configuration not stated) | 46 | > 100 | > 100 | 46.3 | > 100 |
| C=CCOc1ccccc1C1(O)c2ccccc2C2=NCCCN21 (configuration not stated) | 54.1 | > 100 | 59.7 | > 100 | > 100 |
| N#Cc1c(-c2ccc(Cl)cc2)c2c(N=Nc3c(O)ccc4ccccc34)[nH]nc2[nH]c1=O | 1.82 | 0.439 | 0.0736 | 3.96 | 0.777 |
| S=C(N1CCN(c2cccc(Cl)c2)CC1)N1CCN(c2cccc(Cl)c2)CC1 | > 100 |  | > 100 | 66.6 | > 100 |
| Cc1cccc2c(N)c3cccc(C(=O)NCC[N+]4(Cc5ccc([N+](=O)[O-])cc5)CCOCC4)c3nc12 | > 100 | > 100 | > 100 | > 77 | > 100 |
| CC[P+]1(c2ccccc2)[C@@H](C)CC[C@@H]1C | > 100 | > 100 | > 100 | > 100 | > 100 |
| O=C1CSC2=NC3=C(CSC/C3=C\c3ccccc3)C(c3ccccc3)N12 (configuration not stated) | > 100 | > 100 | > 100 | > 100 | > 100 |
| CCOC(=O)c1c(N2CCCC2)ncn(C)c1=S | > 100 | > 100 | > 100 | > 100 | > 100 |
| O=[N+]([O-])/C(C(Cl)=C(Cl)Cl)=C(\N1CCCCC1)n1nnc2ccccc21 | 48.8 | 31.7 | 32.6 | 81.8 | > 81.1 |
| CO[C@@H]1C[C@H](OC(N)=O)[C@@H]2C=C[C@@H]3/C=C(C)/C=C/[C@@H](C)[C@H](/C(C)=C/[C@@H](C)NC(C)=O)OC(=O)/C=C/C=C(C)\C=C\[C@]3(C)[C@@H]2C1 | 0.429 | 0.00689 | 0.251 | 0.0455 | 2.69 |
| CCn1c2ccccc2c2ccc(C3C(C(=O)OC)=C(C)NC(C)=C3C(=O)OC)cc21 | > 100 | > 100 | > 100 |  | > 100 |
